# Target: human MRGPRD (Homo sapiens, UniProt Q8TDS7)
# Test: MRGPRD antagonist activity, IP-One HTRF assay in CHO cells stably expressing human MRGPRD (versus 100 μM β-Alanine agonist)
# Type: cell-based
# How it was run: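 CHO cells stably expressing human MRGPRD, plated overnight at 37 °C, were treated with antagonist plus agonist in Tris-HCl/NaCl/LiCl buffer pH 8, incubated 1 h at 37 °C then 1 h at room temperature. IP-1 accumulation read by HTRF; IC50 and percent antagonism of maximum efficacy averaged, SEM reported.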
# Sequence of human MRGPRD (Q8TDS7 whole entry): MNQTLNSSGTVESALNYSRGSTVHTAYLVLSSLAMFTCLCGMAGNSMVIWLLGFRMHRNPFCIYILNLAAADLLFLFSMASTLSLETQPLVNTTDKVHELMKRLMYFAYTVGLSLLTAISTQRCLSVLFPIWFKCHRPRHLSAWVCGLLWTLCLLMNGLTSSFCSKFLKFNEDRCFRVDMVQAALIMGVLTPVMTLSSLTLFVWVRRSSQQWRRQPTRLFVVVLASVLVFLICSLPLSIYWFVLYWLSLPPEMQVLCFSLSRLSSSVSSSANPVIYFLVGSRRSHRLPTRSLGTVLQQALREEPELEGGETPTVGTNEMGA
row,SMILES,IC50 [µM]
1,O=C(Nc1ccncc1)c1nnn(-c2ccc(-c3cccc(O)c3)cc2)c1C1CC1 [Compound 7-170],1 to 3
2,O=C(Nc1ccncc1)c1nnn(-c2ccc(-c3cccc(CO)c3)cc2)c1C1CC1 [Compound 7-171],1 to 3
3,CN(C)c1ccccc1-c1ccc(-n2nnc(C(=O)Nc3ccncc3)c2C2CC2)cc1 [Compound 7-172],1 to 3
4,O=C(Nc1ccncc1)c1nnn(-c2ccc(-c3cn[nH]c3)cc2)c1C1CC1 [Compound 7-173],1 to 3
5,CC(=O)c1ccc(-c2ccc(-n3nnc(C(=O)Nc4ccncc4)c3C3CC3)cc2)cc1C [Compound 7-174],1 to 3
6,CC(C)n1cc(-c2ccc(-n3nnc(C(=O)Nc4ccncc4)c3C3CC3)cc2)cn1 [Compound 7-175],1 to 3
7,O=C(Nc1ccncc1)c1nnn(-c2ccc(-c3cscn3)cc2)c1C1CC1 [Compound 7-176],1 to 3
8,O=C(Nc1ccncc1)c1nnn(-c2ccc(-c3nccs3)cc2)c1C1CC1 [Compound 7-177],1 to 3
9,O=C(Nc1ccncc1)c1nnn(-c2ccc(-c3ccncc3)cc2)c1C1CC1 [Compound 7-178],1 to 3
10,O=C(Nc1ccncc1)c1nnn(-c2ccc(-c3cccnc3)cc2)c1C1CC1 [Compound 7-179],1 to 3
11,N#Cc1ccccc1-c1ccc(-n2nnc(C(=O)Nc3ccncc3)c2C2CC2)cc1 [Compound 7-180],1 to 3
12,Cc1cscc1-c1ccc(-n2nnc(C(=O)Nc3ccncc3)c2C2CC2)cc1 [Compound 7-181],1 to 3
13,Cc1ccc(-c2ccc(-n3nnc(C(=O)Nc4ccncc4)c3C3CC3)cc2)s1 [Compound 7-182],1 to 3
14,O=C(Nc1ccncc1)c1nnn(-c2ccc(-c3cc(C(F)(F)F)[nH]n3)cc2)c1C1CC1 [Compound 7-183],1 to 3
15,Cn1cc(C#N)c(-c2ccc(-n3nnc(C(=O)Nc4ccncc4)c3C3CC3)cc2)n1 [Compound 7-184],1 to 3
16,COc1ccc(-c2ccc(-n3nnc(C(=O)Nc4ccncc4)c3C3CC3)cc2)cc1F [Compound 7-185],1 to 3
17,O=C(Nc1ccncc1)c1nnn(-c2ccc(-c3ccccc3OC(F)(F)F)cc2)c1C1CC1 [Compound 7-186],1 to 3
18,O=C(Nc1ccncc1)c1nnn(-c2ccc(-c3cncs3)cc2)c1C1CC1 [Compound 7-187],1 to 3
19,Cn1ncc(C#N)c1-c1ccc(-n2nnc(C(=O)Nc3ccncc3)c2C2CC2)cc1 [Compound 7-188],1 to 3
20,CCn1cc(-c2ccc(-n3nnc(C(=O)Nc4ccncc4)c3C3CC3)cc2)c(C)n1 [Compound 7-189],1 to 3
21,O=C(Nc1ccncc1)c1nnn(-c2ccc(-c3cccc(F)c3)cc2)c1C1CC1 [Compound 7-190],1 to 3
22,Cc1cc(-c2ccc(-n3nnc(C(=O)Nc4ccncc4)c3C3CC3)cc2)sn1 [Compound 7-191],1 to 3
23,Cn1ncc(CO)c1-c1ccc(-n2nnc(C(=O)Nc3ccncc3)c2C2CC2)cc1 [Compound 7-192],1 to 3
24,Cc1cnn(C2CCCCO2)c1-c1ccc(-n2nnc(C(=O)Nc3ccncc3)c2C2CC2)cc1 (stereo not drawn) [Compound 7-193],1 to 3
25,COc1ncc(-c2ccc(-n3nnc(C(=O)Nc4ccncc4)c3C3CC3)cc2)cn1 [Compound 7-194],1 to 3

row,SMILES,IC50 [µM]
1,O=C(Nc1ccncc1)c1nnn(-c2ccc(-c3ccc(OC(F)(F)F)cc3)cc2)c1C1CC1 [Compound 7-195],1 to 3
2,O=C(Nc1ccncc1)c1nnn(-c2ccc(-c3ccc4[nH]ccc4c3)cc2)c1C1CC1 [Compound 7-196],1 to 3
3,NS(=O)(=O)c1ccccc1-c1ccc(-n2nnc(C(=O)Nc3ccncc3)c2C2CC2)cc1 [Compound 7-197],1 to 3
4,Cc1cc(-c2ccc(-n3nnc(C(=O)Nc4ccncc4)c3C3CC3)cc2)on1 [Compound 7-198],1 to 3
5,CCc1ccc(-c2ccc(-n3nnc(C(=O)Nc4ccncc4)c3C3CC3)cc2)cc1 [Compound 7-199],1 to 3
6,O=C(Nc1ccncc1)c1nnn(-c2ccc(-c3ccccn3)cc2)c1C1CC1 [Compound 7-200],1 to 3
7,CC(C)(C)c1cccc(-c2ccc(-n3nnc(C(=O)Nc4ccncc4)c3C3CC3)cc2)c1 [Compound 7-201],1 to 3
8,O=C(Nc1ccncc1)c1nnn(-c2ccc(-c3ccc(C4CCCC4)cc3)cc2)c1C1CC1 [Compound 7-202],1 to 3
9,O=C(Nc1ccncc1)c1nnn(-c2ccc(-c3cncnc3)cc2)c1C1CC1 [Compound 7-203],1 to 3
10,CN(C)C(=O)c1cccc(-c2ccc(-n3nnc(C(=O)Nc4ccncc4)c3C3CC3)cc2)c1 [Compound 7-204],1 to 3
11,Cc1cc(NC(=O)c2nnn(-c3ccc(-c4ccccc4)c(F)c3)c2C2CC2)ccn1 [Compound 7-205],1 to 3
12,Cc1cc(-c2ccc(-n3nnc(C(=O)Nc4ccncc4)c3C3CC3)cc2)n[nH]1 [Compound 7-206],1 to 3
13,CN(C)C(=O)c1ccc(-c2ccc(-n3nnc(C(=O)Nc4ccncc4)c3C3CC3)cc2)cc1 [Compound 7-207],1 to 3
14,CCc1ccccc1-c1ccc(-n2nnc(C(=O)Nc3ccncc3)c2C2CC2)cc1 [Compound 7-208],1 to 3
15,Cc1nn(C)c(C)c1-c1ccc(-n2nnc(C(=O)NCc3nc4ccccc4n3C)c2C2CC2)cc1 [Compound 7-209],1 to 3
16,CN(C)Cc1ccc(-c2ccc(-n3nnc(C(=O)Nc4ccncc4)c3C3CC3)cc2)cc1 [Compound 7-210],1 to 3
17,O=C(Nc1ccncc1)c1nnn(-c2ccc(-c3cc(CO)[nH]n3)cc2)c1C1CC1 [Compound 7-211],1 to 3
18,CC(C)Cn1nc(C(F)(F)F)cc1-c1ccc(-n2nnc(C(=O)Nc3ccncc3)c2C2CC2)cc1 [Compound 7-212],1 to 3
19,O=C(O)c1cccc(-c2ccc(-n3nnc(C(=O)Nc4ccncc4)c3C3CC3)cc2)c1 [Compound 7-213],> 3
20,CC(C)c1ccc(-c2ccc(-n3nnc(C(=O)Nc4ccncc4)c3C3CC3)cc2)cc1 [Compound 7-214],> 3
21,Cn1nc(-c2ccc(-n3nnc(C(=O)Nc4ccncc4)c3C3CC3)cc2)cc1N [Compound 7-215],> 3
22,N#Cc1cnn(-c2ccccc2)c1-c1ccc(-n2nnc(C(=O)Nc3ccncc3)c2C2CC2)cc1 [Compound 7-216],> 3
23,Cn1cc(-c2ccc(-n3nnc(C(=O)Nc4ccncc4)c3C3CC3)cc2)c(C(F)(F)F)n1 [Compound 7-217],> 3
24,Cn1cc(-c2ccc(-n3nnc(C(=O)Nc4ccncc4)c3C3CC3)cc2)c(C2CC2)n1 [Compound 7-218],> 3

# More lines, now with the values ahead:
row,IC50 [µM],SMILES
1,0.5 to 1,COCn1cc(-c2ccc(-n3nnc(C(=O)Nc4ccncc4)c3C3CC3)cc2)cn1 [Compound 7-158]
2,0.5 to 1,CC(C)Oc1ccccc1-c1ccc(-n2nnc(C(=O)Nc3ccncc3)c2C2CC2)cc1 [Compound 7-160]
3,0.5 to 1,O=C(Nc1ccncc1)c1nnn(-c2ccc(-c3ccccc3O)cc2)c1C1CC1 [Compound 7-161]
4,1 to 3,O=C(Nc1ccncc1)c1nnn(-c2ccc(-c3cccc(OC(F)(F)F)c3)cc2)c1C1CC1 [Compound 7-162]
5,1 to 3,Cn1ccnc1-c1ccc(-n2nnc(C(=O)Nc3ccncc3)c2C2CC2)cc1 [Compound 7-163]
6,1 to 3,Cn1nc(-c2ccc(-n3nnc(C(=O)Nc4ccncc4)c3C3CC3)cc2)c2ccccc21 [Compound 7-164]
7,1 to 3,O=C(Nc1ccncc1)c1nnn(-c2ccc(-c3n[nH]c4cnccc34)cc2)c1C1CC1 [Compound 7-165]
8,1 to 3,O=C(Nc1ccncc1)c1nnn(-c2ccc(-c3cccc(C4CCCCC4)c3)cc2)c1C1CC1 [Compound 7-166]
9,1 to 3,COCc1cccc(-c2ccc(-n3nnc(C(=O)Nc4ccncc4)c3C3CC3)cc2)c1 [Compound 7-167]
10,1 to 3,O=C(Nc1ccncc1)c1nnn(-c2ccc(-c3ccnn3CC3CC3)cc2)c1C1CC1 [Compound 7-168]
11,1 to 3,O=C(Nc1ccncc1)c1nnn(-c2ccc(-c3ccccc3C(F)(F)F)cc2)c1C1CC1 [Compound 7-169]
12,< 0.1,CCn1nc(C)c(-c2ccc(-n3nnc(C(=O)Nc4ccnc(C)c4)c3C3CC3)c(F)c2)c1C [Compound 7-219]
13,< 0.1,Cc1cc(NC(=O)c2nnn(-c3ccc(-c4c(C)nn(C)c4C)cc3F)c2C2CC2)ccn1 [Compound 7-220]
14,< 0.1,Cc1nn(C)c(C)c1-c1ccc(-n2nnc(C(=O)Nc3ccncc3)c2C2CC2)c(F)c1 [Compound 7-221]
15,< 0.1,Cc1cc(NC(=O)c2nnn(-c3ccc(-c4c(C)nn(CC(F)(F)F)c4C)cc3F)c2C2CC2)ccn1 [Compound 7-222]
16,< 0.1,Cc1cc(NC(=O)c2nnn(-c3ccc(-c4c(C)nn(-c5ccccc5)c4C)cc3F)c2C2CC2)ccn1 [Compound 7-223]
17,< 0.1,Cc1cc(NC(=O)c2nnn(-c3ccc(-c4c(C)nn(C)c4F)cc3F)c2C2CC2)ccn1 [Compound 7-224]
18,< 0.1,Cc1ccc(C2(NC(=O)c3nnn(-c4ccc(-c5c(C)nn(-c6ccccc6)c5C)cc4F)c3C3CC3)CC2)cn1 [Compound 7-225]
19,0.1 to 0.5,COc1cc(-c2c(C)nn(C)c2C)ccc1-n1nnc(C(=O)Nc2ccncc2)c1C1CC1 [Compound 7-226]
20,0.1 to 0.5,Cc1ccc(C2(NC(=O)c3nnn(-c4ccc(-c5ccc(C#N)cc5)cc4F)c3C3CC3)CC2)cn1 [Compound 7-227]
21,0.1 to 0.5,COc1cc(-c2ccc(C#N)cc2)ccc1-n1nnc(C(=O)Nc2ccnc(C)c2)c1C1CC1 [Compound 7-228]
22,0.1 to 0.5,CC(=O)c1ccc(-c2cccc(-n3nnc(C(=O)Nc4ccncc4)c3C3CC3)c2)c(F)c1 [Compound 7-229]
23,0.1 to 0.5,Cc1cc(-c2ccc(C#N)cc2)ccc1-n1nnc(C(=O)Nc2ccncc2)c1C1CC1 [Compound 7-230]
24,0.1 to 0.5,CC(=O)c1ccc(-c2ccc(-n3nnc(C(=O)Nc4ccncc4)c3C3CC3)c(C)c2)cc1 [Compound 7-231]
25,0.1 to 0.5,Cc1nn(C)c(C)c1-c1ccc(-n2nnc(C(=O)Nc3ccncc3)c2C2CC2)cn1 [Compound 7-232]
26,0.1 to 0.5,Cc1cc(NC(=O)c2nnn(-c3cccc(-c4ccn(C5CC5)n4)c3)c2C2CC2)ccn1 [Compound 7-233]

# — US20260001871A1, “TRIAZOLE DERIVATIVES AS MODULATORS OF MAS-RELATED G-PROTEIN RECEPTOR D” (ESCIENT PHARMACEUTICALS, INC., priority 2022, published 2026)
